# Where two headings read alike, the source gives them in different places.
# What was measured:
# [1] = target: T1, cGMP binding sites of the GST-cGB-PDE5 protein (Homo sapiens, UniProt O76074); assay: cGMP binding assay with GST-cGB-PDE5 fusion protein; settings: for competition with cGMP binding at high concentration: 100 μM competitor, cGMP 2 μM
# T1 construct: made in house; host or cells: E. coli BL21 (DE3)
# [2] = target: T2, purified cyclooxygenase (Type 1, COX-I) from ram seminal vesicles (Ovis aries, UniProt P05979); assay: COX inhibition assay, purified cyclooxygenase; format: biochemical; settings: for COX Inhibition: qualitative activity profile
# T2 construct: using purified cyclooxygenase from ram seminal vesicles as described previously; tissue Cayman Chemical, Ann Arbor, Mich; (named in the general protocol only); host or cells: ram seminal vesicles
# T2 sequence (P05979 25-600): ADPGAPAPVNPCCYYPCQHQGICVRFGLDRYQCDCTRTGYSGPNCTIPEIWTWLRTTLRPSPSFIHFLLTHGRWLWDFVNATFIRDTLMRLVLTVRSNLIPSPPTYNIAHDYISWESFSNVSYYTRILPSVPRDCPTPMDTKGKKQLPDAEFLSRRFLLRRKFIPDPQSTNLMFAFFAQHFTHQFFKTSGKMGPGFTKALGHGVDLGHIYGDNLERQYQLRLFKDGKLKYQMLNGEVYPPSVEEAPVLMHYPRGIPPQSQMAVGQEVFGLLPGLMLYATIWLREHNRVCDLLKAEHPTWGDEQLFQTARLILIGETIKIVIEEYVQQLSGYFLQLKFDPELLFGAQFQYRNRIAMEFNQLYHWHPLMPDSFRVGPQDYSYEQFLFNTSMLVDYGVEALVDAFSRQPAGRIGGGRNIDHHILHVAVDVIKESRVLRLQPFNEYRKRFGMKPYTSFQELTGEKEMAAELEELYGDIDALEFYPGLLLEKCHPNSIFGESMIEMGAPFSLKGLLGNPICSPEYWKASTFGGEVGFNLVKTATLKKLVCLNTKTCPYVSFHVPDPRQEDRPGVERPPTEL
# [3] = system: HT-29 colon adenocarcinoma cells; assay: Apoptosis by DNA fragmentation assay in HT-29; format: cell-based, human; settings: qualitative activity profile; further: key: −: Not active; +: Slightly active; ++: Moderately active; +++: Strongly active; ++++: Highly active
# [4] = system: cGMP PDE purified from human colon HT-29 cultured tumor cells; assay: cGMP PDE inhibition assay; format: biochemical; settings: for PDE Inhibition: qualitative activity profile
# [5] = system: HT-29 human colon carcinoma cell line; assay: Growth inhibition, SRB assay, HT-29; format: cell-based; design: Growth Inhibition: key to the marks not given beside the values; settings: for Growth Inhibition: qualitative activity profile; for IC50: HT-29 treated for 6 days, SRB assay, read-out: Growth inhibition (IC50)
# [6] = system: premalignant lesions in mouse mammary gland organ culture; assay: Mammary gland organ culture model; format: cell-based; settings: for Mammary Gland Organ Culture: qualitative activity profile; on mammary gland organ culture: key: −: Not active; +: Slightly active; ++: Moderately active; +++: Strongly active; ++++: Highly active
# Text: Test compounds identified by the above methods can be tested for antineoplastic activity by their ability to inhibit the incidence of pre-neoplastic lesions in a mammary gland organ culture system. This mouse mammary gland organ culture technique has been successfully used by other investigators to study the effects of known antineoplastic agents such as certain NSAIDs, retinoids, tamoxifen, selenium, and certain natural products, and is useful for validation of the screening method of the present invention.
# For example, female BALB/c mice can be treated with a combination of estradiol and progesterone daily, in order to prime the glands to be responsive to hormones in vitro. The animals are sacrificed, and thoracic mammary glands are excised aseptically and incubated for ten days in growth media supplemented with insulin, prolactin, hydrocortisone, and aldosterone. DMBA (7,12-dimethylbenz(a)anthracene) is added to medium to induce the formation of premalignant lesions. Fully developed glands are then deprived of prolactin, hydrocortisone, and aldosterone, resulting in the regression of the glands but not the pre-malignant lesions.
# The test compound is dissolved in DMSO and added to the culture media for the duration of the culture period. At the end of the culture period, the glands are fixed in 10% formalin, stained with alum carmine, and mounted on glass slides. The incidence of forming mammary lesions is the ratio of the glands with mammary lesions to […]. The incidence of mammary lesions in test compound treated glands is compared with that of the untreated glands.
# The extent of the area occupied by the mammary lesions can be quantitated by projecting an image of the gland onto a digitation pad. The area covered by the gland is traced on the pad and considered as 100% of the area. The space covered by each of the non-regressed structures is also outlined on the digitization pad and quantitated by the computer.
# Mammary gland organ culture experiment were performed as previously described (Mehta and Moon, Cancer Research, 46: 5832-5835, 1986). […] The data support the hypothesis that cyclooxygenase inhibition is not necessary for the anti-neoplastic properties of desired compounds.
# HT-29 cells = assay: Apoptosis and necrosis by morphology (acridine orange and ethidium bromide); format: cell-based, human; settings: HT-29 treated for 6 days
# Text: Apoptosis occurs naturally during normal tissue turnover and during embryonic development of organs and limbs. Apoptosis also is induced by cytotoxic T-lymphocytes and natural killer cells, by ionizing radiation and by certain chemotherapeutic drugs. Inappropriate regulation of apoptosis is thought to play an important role in many pathological conditions including cancer, AIDS, or Alzheimer's disease, etc. Compounds can be screened for induction of apoptosis using cultures of tumor cells maintained under conditions as described above. Treatment of cells with test compounds involves either pre- or post-confluent cultures and treatment for two to seven days at various concentrations. Apoptotic cells are measured in both the attached and “floating” compartments of the cultures. Both compartments are collected by removing the supernatant, trypsinizing the attached cells, and combining both preparations following a centrifugation wash step (10 minutes, 2000 rpm). The protocol for treating tumor cell cultures with sulindac and related compounds to obtain a significant amount of apoptosis has been described in the literature. (See, Piazza, G. A., et al., Cancer Research, 55:3110-16, 1995, which is incorporated herein by reference). The novel features include collecting both floating and attached cells, identification of the optimal treatment times and dose range for observing apoptosis, and identification of optimal cell culture conditions.
# Following treatment with a compound, cultures can be assayed for apoptosis and necrosis by florescent microscopy following labeling with acridine orange and ethidium bromide. The method for measuring apoptotic cell number has previously been described by Duke & Cohen, “Morphological And Biochemical Assays Of Apoptosis,” Current Protocols In Immunology, Coligan et al., eds., 3.17.1-3.17.16 (1992, which is incorporated herein by reference).
# For example, floating and attached cells can be collected by trypsinization and washed three times in PBS. Aliquots of cells can be centrifuged. The pellet can then be re-suspended in media and a dye mixture containing acridine orange and ethidium bromide prepared in PBS and mixed gently. The mixture can then be placed on a microscope slide and examined for morphological features of apoptosis.
# Reference compounds and test compounds were analyzed for their novel PDE inhibitory activity in accordance with the protocols for the assay, supra. […] Apoptotic and necrotic cell death was determined previously (Duke and Cohen, In: Current Protocols in Immunology, 3.17.1-3.17.16, New York, John Wiley and Sons, 1992). […] All data were collected from the same experiment.
# The apoptosis inducing activity for a series of phosphodiesterase inhibitors was determined. HT-29 cell were treated for 6 days with various inhibitors of phosphodiesterase. Apoptosis and necrosis were determined morphologically after acridine orange and ethidium bromide labeling in accordance with the assay described, supra.
# [7] = system: cGMP and cAMP levels in HT-29 cells; assay: Cyclic nucleotide levels in cultured cells by radioimmunoassay; format: cell-based, human; settings: HT-29 cells treated 30 minutes
# [8] = target: T3, PDE peak A (PDE5) from SW480 cells (Homo sapiens, UniProt O76074); assay: cGMP hydrolysis inhibition, PDE peak A from SW480; format: biochemical
# T3 construct: endogenous in cells; host or cells: SW480 colon cancer cells, DEAE-Trisacryl M fraction
compound,measurement,setting,value
CCCCOC1C2OP(=O)(O)OCC2OC1n1cnc2c(N)ncnc21 (centres unmarked) [2′-O-butyl-cAMP],competition with cGMP in binding of GST-cGB-PDE5,[1]; 3H-cGMP 2 μM,did not compete with cGMP in binding
"CC1=C(CC(=O)N(C2CCCCC2)C2CCCCC2)c2cc(F)ccc2/C1=C\c1ccc(S(C)(=O)=O)cc1 [F, (Z)-5-Fluoro-2-methyl-1-(p-methylsulfonylbenzylidene)-3-indenylacetamide, N,N′-dicyclohexyl]",COX Inhibition,[2],−
same,Apoptosis,[3],+
same,PDE Inhibition,[4],−
same,Growth Inhibition,[5],++
same,Mammary Gland Organ Culture,[6],−
CCCOc1ccccc1-c1nc2nn[nH]c2c(=O)[nH]1 [Zaprinast],competition with cGMP in binding of GST-cGB-PDE5,[1]; 3H-cGMP 2 μM,do not bind to the cGMP binding sites of PDE5
Nc1nc2c(nc(Br)n2[C@@H]2O[C@@H]3COP(=O)(O)O[C@H]3[C@H]2O)c(=O)[nH]1 [Compound 8-bromo-cGMP],competition with cGMP binding at high concentration,[1],can partially compete
CCCCOc1cc(CC2CNC(=O)N2)ccc1OC (centres unmarked) [RO-20-1724],% Apoptosis,HT-29 cells,11%
same,% Necrosis,HT-29 cells,2%
same,IC50,[5],> 200 µM
Nc1ncnc2c1ncn2[C@@H]1O[C@@H]2COP(=O)(O)O[C@H]2[C@H]1O [Cyclic AMP],competition with cGMP in binding of GST-cGB-PDE5,[1],did not compete with cGMP in binding
O=c1[nH]cnc2c1ncn2[C@@H]1O[C@@H]2COP(=O)(O)O[C@H]2[C@H]1O [Cyclic IMP],competition with cGMP binding at high concentration,[1],can partially compete
"rac-(E)-1-(butan-1′, 4′-olido)-[3′, 4′: 1,2]-6-fluoro-2-methyl-3-(p-methylsulfonylbenzylidene)-1S-indanyl-glutathione)",COX Inhibition,[2],−
same,Apoptosis,[3],−
same,PDE Inhibition,[4],−
same,Growth Inhibition,[5],++
same,Mammary Gland Organ Culture,[6],−
"ribo-(E)-1-Triazolo-[2′, 3′: 1″, 3″]-1-(butan-1′, 4′-olido)-[3′, 4′: 1, 2]-6-flouro-2-methyl-3-(p-methylsulfonylbenzylidene)-indan [G]",COX Inhibition,[2],−
same,Apoptosis,[3],++
same,PDE Inhibition,[4],−
same,Growth Inhibition,[5],+++
same,Mammary Gland Organ Culture,[6],+++
"CC1=C(CC(=O)O)c2cc(F)ccc2/C1=C\c1ccc(Cl)cc1 [Compound C, (Z)-5-Fluoro-2-methyl-1-(p-chlorobenzylidene)-3-acetic acid]","cGMP PDE inhibitory activity, % Inhibition at 10 μM",[4]; 10 μM,<25%
same,"Growth-inhibitory activity, % Inhibition at 100 μM",[5],80%
Nc1ccn([C@@H]2O[C@@H]3COP(=O)(O)O[C@H]3[C@H]2O)c(=O)n1 [cCMP],competition with cGMP in binding of GST-cGB-PDE5,[1]; 3H-cGMP 2 μM,did not compete with cGMP in binding
CC(C)Cn1c(=O)n(C)c(=O)c2[nH]cnc21 [IBMX],% Apoptosis,HT-29 cells,4%
same,% Necrosis,HT-29 cells,13%
same,IC50,[5],> 100 µM
COc1ccc(C2CNC(=O)C2)cc1OC1CCCC1 (centres unmarked) [Rolipram],effect on cAMP levels,[7],increased cAMP
CC1(C)C(=O)Nc2ccc(C3=NNC(=O)CC3)cc21 [Indolidan],Ratio (IC50 Peak A/Peak B),[8],<0.31
COc1nc2c([nH]1)c(=O)n(C)c(=O)n2CC(C)C [8-methoxy-IBMX],% Apoptosis,HT-29 cells,2%
same,% Necrosis,HT-29 cells,1%
same,IC50,[5],> 200 µM
"CC(=O)NC(CSC12CC(=O)OC1(C)/C(=C/c1ccc(S(C)(=O)=O)cc1)c1ccc(F)cc12)C(=O)O (racemic) [D, rac-(E)-1-(butan-1′,4′-olido)-[3′,4′: 1,2]-6-fluoro-2-methyl-3-(p-methylsulfonylbenzylidene)-1S-indanyl-N-acetylcysteine]","Cyclooxygenase inhibitory activity, % Inhibition at 100 μM",[2],<25%
same,COX Inhibition,[2],−
same,Apoptosis,[3],−
same,PDE Inhibition,[4],−
same,"Growth-inhibitory activity, % Inhibition at 100 μM",[5],78%
same,Growth Inhibition,[5],++
same,Mammary Gland Organ Culture,[6],−
O=c1ccn([C@@H]2O[C@@H]3COP(=O)(O)O[C@H]3[C@H]2O)c(=O)[nH]1 [cUMP],competition with cGMP in binding of GST-cGB-PDE5,[1]; 3H-cGMP 2 μM,did not compete with cGMP in binding
CC1=C(CC(=O)O)c2cc(F)ccc2/C1=C\c1ccc([S+](C)[O-])cc1 (centres unmarked) [sulindac],inhibition of the formation of premalignant lesions,[6]; mammary gland organ culture,effectively inhibit the formation of premalignant lesions
"Clc1cccc(Nc2nnc(-c3ccccc3)c3ccccc23)c1 [MY5445, 1-(3-chloroanilino)-4-phenyphthalazine]",% Apoptosis,HT-29 cells,80%
same,% Necrosis,HT-29 cells,5%
same,"Cyclooxygenase inhibitory activity, % Inhibition at 100 μM",[2],94%
same,COX Inhibition,[2],++++
same,Apoptosis,[3],+++
same,PDE Inhibition,[4],+++
same,IC50,[5],5 µM
same,Growth Inhibition,[5],+++
same,Mammary Gland Organ Culture,[6],+
CCCCOC1C2OP(=O)(O)OCC2OC1n1cnc2c(=O)[nH]c(N)nc21 (centres unmarked) [2′-O-butyl-cGMP],competition with cGMP in binding of GST-cGB-PDE5,[1]; 3H-cGMP 2 μM,did not compete with cGMP in binding

# From patent US20030109418A1, “Methods for identifying compounds for inhibition of neoplastic lesions, and pharmaceutical compositions containing such compounds” (priority 1999, published 2003)
